Tested on: 883617-216-R-J1-PDC complex spheroid viability
Assay: Anticancer human tumor 883617-216-R-J1-PDC patient-derived bladder carcinoma cell line growth inhibition [POLQ]
Conditions: for IC50: curve of first compound; for viability, T/C: stronger effect = lower value
In short: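 PDC + HUVEC + MSC complex spheroids; POLQ inhibitors ± partner drugs; top conc. at/near clinical Cmax, else 10 microM (SN-38 1 microM), half-log dilutions; 37 degrees C, 5% CO2.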

[1] = second compound 0.0316 µM, first compound 0.0316 µM
[2] = second compound 0.0316 µM, first compound 0.1 µM
[3] = second compound 0.0316 µM, first compound 0.316 µM
[4] = second compound 0.0316 µM, first compound 1 µM
[5] = second compound 0.0316 µM, first compound 3.16 µM
[6] = second compound 0.0316 µM, first compound 10 µM
[7] = second compound 0.1 µM, first compound 0.0316 µM
[8] = second compound 0.1 µM, first compound 0.1 µM
[9] = second compound 0.1 µM, first compound 0.316 µM
[10] = second compound 0.1 µM, first compound 1 µM
[11] = second compound 0.1 µM, first compound 3.16 µM
[12] = second compound 0.1 µM, first compound 10 µM
[13] = second compound 0.316 µM, first compound 0.0316 µM
[14] = second compound 0.316 µM, first compound 0.1 µM
[15] = second compound 0.316 µM, first compound 0.316 µM
[16] = second compound 0.316 µM, first compound 1 µM
[17] = second compound 0.316 µM, first compound 3.16 µM
[18] = second compound 0.316 µM, first compound 10 µM
[19] = second compound 1 µM, first compound 0.0316 µM
[20] = second compound 1 µM, first compound 0.1 µM
[21] = second compound 1 µM, first compound 0.316 µM
[22] = second compound 1 µM, first compound 1 µM
[23] = second compound 1 µM, first compound 3.16 µM
[24] = second compound 1 µM, first compound 10 µM
[25] = second compound 3.16 µM, first compound 0.0316 µM
[26] = second compound 3.16 µM, first compound 0.1 µM
[27] = second compound 3.16 µM, first compound 0.316 µM
[28] = second compound 3.16 µM, first compound 1 µM
[29] = second compound 3.16 µM, first compound 3.16 µM
[30] = second compound 3.16 µM, first compound 10 µM
[31] = second compound 10 µM, first compound 0.0316 µM
[32] = second compound 10 µM, first compound 0.1 µM
[33] = second compound 10 µM, first compound 0.316 µM
[34] = second compound 10 µM, first compound 1 µM
[35] = second compound 10 µM, first compound 3.16 µM
[36] = second compound 10 µM, first compound 10 µM
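Further: spheroids exposed to compounds for seven days before readout.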
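Wherever viability, T/C is given: 100% = DMSO vehicle control viability.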

**Q.** What does the source list for `COc1cc(C2c3cc4c(cc3C(OC3OC5COC(C)OC5C(O)C3O)C3COC(=O)C23)OCO4)cc(OC)c1O` (stereo unspecified) + Nc1ccc(C#CCN(C(=O)Cc2ncc(C(F)(F)F)cc2C(F)(F)F)c2ccc(F)cc2)nn1?
**A.** IC50 (second compound 0.0316 µM): > 10 µM; IC50 (second compound 0.1 µM): > 10 µM; IC50 (second compound 0.316 µM): > 10 µM; IC50 (second compound 1 µM): > 10 µM; IC50 (second compound 3.16 µM): > 10 µM; IC50 (second compound 10 µM): > 10 µM; viability, T/C [1]: 103%; viability, T/C [2]: 99.1%; viability, T/C [3]: 65.7%; viability, T/C [4]: 82.1%; viability, T/C [5]: 67.5%; viability, T/C [6]: 60%; viability, T/C [7]: 112%; viability, T/C [8]: 98.8%; viability, T/C [9]: 81%; viability, T/C [10]: 75.9%; viability, T/C [11]: 69.4%; viability, T/C [12]: 59.6%; viability, T/C [13]: 104%; viability, T/C [14]: 105%; viability, T/C [15]: 92.3%; viability, T/C [16]: 64.4%; viability, T/C [17]: 69.7%; viability, T/C [18]: 54%; viability, T/C [19]: 104%; viability, T/C [20]: 102%; viability, T/C [21]: 83.2%; viability, T/C [22]: 80%; viability, T/C [23]: 87.8%; viability, T/C [24]: 62.1%; viability, T/C [25]: 91.8%; viability, T/C [26]: 117%; viability, T/C [27]: 81.8%; viability, T/C [28]: 73.2%; viability, T/C [29]: 69.1%; viability, T/C [30]: 58.6%; viability, T/C [31]: 101%; viability, T/C [32]: 107%; viability, T/C [33]: 92.3%; viability, T/C [34]: 75%; viability, T/C [35]: 80.7%; viability, T/C [36]: 70.5%

**Q.** With `COc1cccc2c1C(=O)c1c(O)c3c(c(O)c1C2=O)CC(O)(C(=O)CO)CC3OC1CC(N)C(O)C(C)O1` (stereo unspecified) + Nc1ccc(C#CCN(C(=O)Cc2ncc(C(F)(F)F)cc2C(F)(F)F)c2ccc(F)cc2)nn1 as the compound, how does the IC50 (second compound 0.0316 µM) read?
**A.** 0.44 µM

**Q.** And the IC50 (second compound 0.1 µM)?
**A.** 0.382 µM

**Q.** And the IC50 (second compound 0.316 µM)?
**A.** 0.341 µM

**Q.** What about the IC50 (second compound 1 µM) of the same compound?
**A.** 0.398 µM

**Q.** What about the IC50 (second compound 3.16 µM) of the same compound?
**A.** 0.371 µM

**Q.** What about the IC50 (second compound 10 µM) of the same compound?
**A.** 0.419 µM

**Q.** And the viability, T/C [1]?
**A.** 76.5%

**Q.** What about the viability, T/C [2] of the same compound?
**A.** 67.2%

**Q.** And the viability, T/C [3]?
**A.** 62.8%

**Q.** What about the viability, T/C [4] of the same compound?
**A.** 19.8%

**Q.** What about the viability, T/C [5] of the same compound?
**A.** 0.23%

**Q.** What about the viability, T/C [6] of the same compound?
**A.** 0.18%

**Q.** And the viability, T/C [7]?
**A.** 71.3%

**Q.** And the viability, T/C [8]?
**A.** 74.7%

**Q.** What about the viability, T/C [9] of the same compound?
**A.** 55.2%

**Q.** And the viability, T/C [10]?
**A.** 18.8%

**Q.** What about the viability, T/C [11] of the same compound?
**A.** 0.24%

**Q.** What about the viability, T/C [12] of the same compound?
**A.** 0.17%

**Q.** What about the viability, T/C [13] of the same compound?
**A.** 79.3%

**Q.** What about the viability, T/C [14] of the same compound?
**A.** 72.2%

**Q.** What about the viability, T/C [15] of the same compound?
**A.** 52.9%

**Q.** What about the viability, T/C [16] of the same compound?
**A.** 16.7%

**Q.** And the viability, T/C [17]?
**A.** 0.21%

**Q.** And the viability, T/C [18]?
**A.** 0.71%

**Q.** And the viability, T/C [19]?
**A.** 77.3%

**Q.** And the viability, T/C [20]?
**A.** 64.2%

**Q.** What about the viability, T/C [21] of the same compound?
**A.** 59.7%

**Q.** What about the viability, T/C [22] of the same compound?
**A.** 15.4%

**Q.** And the viability, T/C [23]?
**A.** 0.76%

**Q.** What about the viability, T/C [24] of the same compound?
**A.** 0.21%

**Q.** And the viability, T/C [25]?
**A.** 78.5%

**Q.** And the viability, T/C [26]?
**A.** 68.6%

**Q.** What about the viability, T/C [27] of the same compound?
**A.** 56.6%

**Q.** And the viability, T/C [28]?
**A.** 15.3%

**Q.** And the viability, T/C [29]?
**A.** 0.47%

**Q.** What about the viability, T/C [30] of the same compound?
**A.** 0.94%

**Q.** And the viability, T/C [31]?
**A.** 81.8%

**Q.** What about the viability, T/C [32] of the same compound?
**A.** 63%

**Q.** And the viability, T/C [33]?
**A.** 62.6%

**Q.** What about the viability, T/C [34] of the same compound?
**A.** 14.5%

**Q.** What about the viability, T/C [35] of the same compound?
**A.** 0.53%

**Q.** And the viability, T/C [36]?
**A.** 0.36%

**Q.** With `O=c1[nH]cc(F)c(=O)[nH]1` + Nc1ccc(C#CCN(C(=O)Cc2ncc(C(F)(F)F)cc2C(F)(F)F)c2ccc(F)cc2)nn1 as the compound, how does the IC50 (second compound 0.0316 µM) read?
**A.** > 10 µM

**Q.** And the IC50 (second compound 0.1 µM)?
**A.** > 10 µM

**Q.** What about the IC50 (second compound 0.316 µM) of the same compound?
**A.** > 10 µM

**Q.** What about the IC50 (second compound 1 µM) of the same compound?
**A.** > 10 µM

**Q.** What about the IC50 (second compound 3.16 µM) of the same compound?
**A.** > 10 µM

**Q.** And the IC50 (second compound 10 µM)?
**A.** > 10 µM

**Q.** What about the viability, T/C [1] of the same compound?
**A.** 112%

**Q.** And the viability, T/C [2]?
**A.** 105%

**Q.** And the viability, T/C [3]?
**A.** 93.2%

**Q.** What about the viability, T/C [4] of the same compound?
**A.** 87.1%

**Q.** What about the viability, T/C [5] of the same compound?
**A.** 94.2%

**Q.** What about the viability, T/C [6] of the same compound?
**A.** 70.3%

**Q.** What about the viability, T/C [7] of the same compound?
**A.** 102%

**Q.** And the viability, T/C [8]?
**A.** 108%

**Q.** And the viability, T/C [9]?
**A.** 101%

**Q.** What about the viability, T/C [10] of the same compound?
**A.** 105%

**Q.** What about the viability, T/C [11] of the same compound?
**A.** 93.3%

**Q.** What about the viability, T/C [12] of the same compound?
**A.** 81.2%

**Q.** What about the viability, T/C [13] of the same compound?
**A.** 103%

**Q.** What about the viability, T/C [14] of the same compound?
**A.** 106%

**Q.** And the viability, T/C [15]?
**A.** 107%

**Q.** And the viability, T/C [16]?
**A.** 92.7%

**Q.** And the viability, T/C [17]?
**A.** 94.7%

**Q.** What about the viability, T/C [18] of the same compound?
**A.** 82.4%

**Q.** And the viability, T/C [19]?
**A.** 93.5%

**Q.** And the viability, T/C [20]?
**A.** 115%

**Q.** What about the viability, T/C [21] of the same compound?
**A.** 99.2%

**Q.** What about the viability, T/C [22] of the same compound?
**A.** 110%

**Q.** What about the viability, T/C [23] of the same compound?
**A.** 105%

**Q.** What about the viability, T/C [24] of the same compound?
**A.** 80.6%

**Q.** What about the viability, T/C [25] of the same compound?
**A.** 100%

**Q.** What about the viability, T/C [26] of the same compound?
**A.** 107%

**Q.** And the viability, T/C [27]?
**A.** 101%

**Q.** What about the viability, T/C [28] of the same compound?
**A.** 110%

**Q.** And the viability, T/C [29]?
**A.** 103%

**Q.** What about the viability, T/C [30] of the same compound?
**A.** 82.2%

**Q.** And the viability, T/C [31]?
**A.** 128%

**Q.** What about the viability, T/C [32] of the same compound?
**A.** 112%

**Q.** And the viability, T/C [33]?
**A.** 120%

**Q.** And the viability, T/C [34]?
**A.** 108%

**Q.** And the viability, T/C [35]?
**A.** 104%

**Q.** What about the viability, T/C [36] of the same compound?
**A.** 94.1%

— PubChem BioAssay AID1963833 (Molecular Pharmacology Branch, DTP, NCI, 2024)
